Data: ChEMBL document CHEMBL1122080, “2- and 6-methyl-1,4-naphthoquinone derivatives and potential bioreductive alkylating agents” (1982)

What was measured:
Format in all cases: functional
Mus musculus [1] = experiment: Average weight change in mice bearing sarcoma 180 ascites cells at dose 5 mg/kg
Mus musculus [2] = experiment: Average weight change in mice bearing sarcoma 180 ascites cells at dose 20 mg/kg
Mus musculus [3] = experiment: Average weight change in mice bearing sarcoma 180 ascites cells at dose 10 mg/kg
Mus musculus [4] = experiment: Ratio of the survival time of treated to control animals at dose 10 mg/kg
Mus musculus [5] = experiment: Ratio of the survival time of treated to control animals at dose 5 mg/kg
Mus musculus [6] = experiment: Ratio of the survival time of treated to control animals at dose 20 mg/kg
Mus musculus [7] = experiment: Average weight change in mice bearing sarcoma 180 ascites cells at dose 2.5 mg/kg
Mus musculus [8] = experiment: Ratio of the survival time of treated to control animals at dose 2.5 mg/kg

Row | SMILES | Average weight change (Mus musculus [1]) [%] | Average weight change (Mus musculus [2]) [%] | Average weight change (Mus musculus [3]) [%] | T/C (Mus musculus [4]) | T/C (Mus musculus [5]) | T/C (Mus musculus [6]) | Average weight change (Mus musculus [7]) [%] | T/C (Mus musculus [8])
1 | COCC1=CC(=O)c2ccccc2C1=O | 17 | -19 | 1.6 | 1.38 | 0.98 | 1.07 | – | –
2 | CC1=CC(=O)c2ccccc2C1=O [MENADIONE] | 18.7 | -2 | 17.3 | 1.03 | 0.85 | 1.34 | – | –
3 | CCOCc1ccc2c(c1)C(=O)C=CC2=O | -6.4 | – | -10.3 | 0.97 | 1.32 | 0.42 | – | –
4 | Cc1ccc(S(=O)(=O)OCC2=CC(=O)c3ccccc3C2=O)cc1 | 2.8 | -7.4 | -4.4 | 2.16 | 1.77 | 1.62 | – | –
5 | CNC(=O)OCc1ccc2c(c1)C(=O)C=CC2=O | -7.6 | -10.8 | -7.8 | 1.61 | 1.71 | 0.81 | – | –
6 | CC(=O)OCC1=CC(=O)c2ccccc2C1=O | -9.3 | -10.2 | -14.4 | 1.62 | 1.66 | 0.7 | – | –
7 | O=C(NCCCl)OCc1ccc2c(c1)C(=O)C=CC2=O | -9 | -17.3 | -11.7 | 1.63 | 1.47 | 0.5 | – | –
8 | CNC(=O)OCC1=CC(=O)c2ccccc2C1=O | -12.6 | -11.4 | -10.5 | 1.51 | 1.39 | 0.51 | – | –
9 | Cc1ccc2c(c1)C(=O)C=CC2=O | -11.5 | – | -11.1 | 0.38 | 1.09 | 0.26 | – | –
10 | CS(=O)(=O)OCc1ccc2c(c1)C(=O)C=CC2=O | -6.3 | -13.3 | -11.8 | 1.43 | 1.71 | 1.44 | – | –
11 | O=C1C=CC(=O)c2cc(CCl)ccc21 | -10.4 | – | -13.5 | 1.05 | 1.38 | 0.22 | – | –
12 | O=C(NCCCl)OCC1=CC(=O)c2ccccc2C1=O | -4.6 | -13.8 | -11.4 | 1.71 | 2.08 | 1.96 | – | –
13 | O=C1C=CC(=O)c2cc(CO)ccc21 | – | – | – | 0.17 | – | – | -9.1 | 1.16
14 | O=C1C=C(CO)C(=O)c2ccccc21 | -6.4 | – | -15.2 | 0.45 | 1.16 | 0.22 | – | –
15 | CC(=O)OCc1ccc2c(c1)C(=O)C=CC2=O | -2.9 | -7.4 | – | 0.93 | 1.35 | 0.48 | – | –
16 | O=C1C=C(CBr)C(=O)c2ccccc21 | -5.4 | -9.1 | -7.7 | 1.49 | 1.73 | 1.69 | 1.7 | 1.61
17 | Cc1ccc(S(=O)(=O)OCc2ccc3c(c2)C(=O)C=CC3=O)cc1 | -3.8 | -15.2 | -11.6 | 1.82 | 1.44 | 1.64 | – | –
18 | O=C1C=C(CCl)C(=O)c2ccccc21 | -2 | -16.4 | -9.8 | 1.47 | 1.4 | 1.3 | – | –
19 | CS(=O)(=O)OCC1=CC(=O)c2ccccc2C1=O | -6.3 | -8.8 | -8.3 | 1.57 | 1.92 | 1.41 | – | –
20 | O=C1C=CC(=O)c2cc(CBr)ccc21 | -7.8 | -12.5 | -11.3 | 1.42 | 1.46 | 0.57 | -4.2 | 2.07
